Test: Pharmacokinetic study of 157 (and metabolite endothal) in SD rats, iv and po; plasma, liver, brain
Type: in vivo
Conditions: for endothal detectable in brain samples: after single iv 157 at 1.5 mg/kg; for Cmax: female, rat, in vivo, iv
Procedure: The blood, liver and brain tissue samples were collected at predetermined times from rats. […] Compound were diluted shortly before use in 4% sodium bicarbonate for sterile injection (this is the standard pediatric solution of NaHCO3 with a pH of about 8.5).
Compound 153 was freshly prepared by diluting the drugs shortly before use in 4% sodium bicarbonate for sterile injection (this is the standard pediatric solution of NaHCO3 with a pH of about 8.5). The final concentrations of 153 solutions were 0.25 mg/mL. The 153 solutions were administered via iv or po route at dose volume of 5 ml/kg according to the latest body weight. Compound 157 was freshly prepared by diluting the drugs shortly before use in 4% sodium bicarbonate for sterile injection (this is the standard pediatric solution of NaHCO3 with a pH of about 8.5). The final concentrations of […] solutions were 0.3 mg/mL. The 157 solutions were administered via iv or po route at dose volume of 5 ml/kg according to the latest body weight.
Twelve (12) female SD rats per group were dosed by iv with 153 or 157. The rats were fasted overnight prior to dosing, with free access to water. Foods were withheld for 2 hours post-dose. Blood, liver and brain tissue samples in two animals each group were collected at each time point, within 10% of the scheduled time for each time point. Two extra animals were used for analytic method development.
Blood (>0.3 mL) were collected via aorta abdominalis in anaesthetic animals into tubes containing heparin at 15 min, 1, 2, 6, 10 and 24 hours after iv administration. Liver and brain tissues were collected immediately after animal death. The liver and brain tissues were excised and rinsed with cold saline to avoid blood residual. Upon collection, each sample was placed on ice and the blood samples were subsequently centrifuged (4° C., 11000 rpm, 5 min) to separate plasma. The obtained plasma, liver and brain tissue samples were stored at −70° C. until LC-MS/MS analysis.
Two (2) female SD rats per group were dosed by po with 153 or 157. The rats were fasted overnight prior to dosing, with free access to water. Foods were withheld for 2 hours post-dose. Blood samples (>0.3 mL) were collected via aorta abdominalis in anaesthetic animals into tubes containing heparin at 30 min, 1, 2, 6, 10 and 24 hours after po administration.
To each sample, 30 μL IS-D (for blank samples, 20 μL acetonitrile:water (1:1) was added) and 300 μl acetonitrile was added. The sample mixture was vortexed for approximately 3 min. After centrifugation at 10000 rpm for 5 min at 4° C., 100 μL of the upper layer was transferred to a new tube and added 200 μL 0.4% formic acid in water (pH6.0). The mixture was vortexed for approximately 3 min before injected onto the LC/MS/MS system for analysis.
On the day of the assay, the frozen liver and brain samples were thawed unassisted at room temperature. An about 200 mg weighed sample of each thawed tissue was placed into a plastic tube with water (0.6 mL) to facilitate homogenization. Tissue processing was conducted using a homogenizer for approximately 1 min, 100 μl homogenate was transferred into a fresh Eppendorf tube. To each tube, 50 μL IS-D was added and mixed. Then 500 μl acetonitrile was added and the sample mixture was vortexed for approximately 3 min. After centrifugation at 10000 rpm for 5 min at 4° C., 100 μL of the upper layer was transferred to a new tube and evaporate the supernatant to dryness at 35° C. Reconstitute the residue with 200 μL of 0.4% formic acid in water (pH 6.0), and vortex for 3 min, submit for LC-MS/MS analysis.
Frozen unknown plasma samples were completely thawed at room temperature and vortexed thoroughly. With a pipette, 50 μL of plasma was transferred into a 2.0 mL Eppendorf tube. 50 μL of 0.1N HCl and 800 μL ethyl acetate were added into each sample. The sample mixture was vortexed for approximately 3 min.

O=C(O)C1C2CCC(O2)C1C(=O)O (stereo not shown) [Endothal, 7-oxabicyclo[2.2.1]heptane-2,3-dicarboxylic acid]
Endothal plasma concentration (after iv 157, 10 hr, Rat 1): BLQ
Endothal plasma concentration (after iv 157, 10 hr, Rat 2): BLQ
Endothal plasma concentration (after iv 157, 24 hr, Rat 1): BLQ
Endothal plasma concentration (after iv 157, 24 hr, Rat 2): BLQ
Endothal plasma concentration (after po 157, 10 hr, Rat 1): BLQ
Endothal plasma concentration (after po 157, 10 hr, Rat 2): BLQ
endothal detectable in brain samples (1.5 mg/kg): undetectable
endothal detectable in brain samples (listed as endothal, 1.5 mg/kg): not detectable
Cmax (SD, 1.5 mg/kg): 3720 ng/g
Cmax (Sprague-Dawley (SD)): 3720 ng/g

Reference: patent publication US20160264593A1 (priority 2013, published 2016)
